Measurements published in publication PMC6630443 (Viruses, 2019).

System: persistent USUV
Format: cell-based, Usutu virus

| Compound | USUV infectivity in supernatant after drug removal | Viral RNA levels in cellular supernatant by day 10 |
| --- | --- | --- |
| NC(=O)c1nc(F)cnc1O [Favipiravir, 6-fluoro-3-hydroxy-2-pyrazinecarboxamide] | re-emerged | barely detectable |
| NC(=O)c1ncn([C@@H]2O[C@H](CO)[C@@H](O)[C@H]2O)n1 [Ribavirin, 1-(β-D-Ribofuranosyl)-1H-1,2,4-triazole-3-carboxamide] | re-emerged | barely detectable |
